# Assay results: patent publication US20250228915A1, “DISTINCT CD8+ T CELL PROGRAMMING IN THE TUMOR MICROENVIRONMENT CONTRIBUTES TO SEX BIAS IN CANCER” (Ohio State Innovation Foundation, priority 2022, published 2025)
# Legend:
# [1] = test system: human Tcf7 promoter in EGFP-C1-AR overexpressing HEK293FT cells; conditions: AR-transfected HEK293FT, 24 h, 500 ng/mL testosterone or 50 nM DHT; AR dependent (FIG. 7E)
# Experimental: WT or mutated human Tcf7 promoter sequence of one kb upstream from its transcriptional start site was cloned into the pMCS-Red Firefly Luciferase vector (Thermo Fisher). Mutants lacked individual (“Mut 1-4”) or all putative AR binding sites. Briefly, 40,000 HEK293FT cells were grown on a 96 well plate at 80% confluence. […] Renilla luciferase gene expression was used to ensure transfection efficiency (Thermo Fisher). Twenty four hours after transfection, cells were treated with 500 ng/ml testosterone or 50 nM DHT for another 24 hours. Cells were then harvested and luciferase activity was analyzed by using Dual-Luciferase Reporter Assay System (Promega).
# [2] = test system: AR-overexpressing Jurkat cells; conditions: 100 nM, prolonged stimulation over 9 days (FIG. 14B)
# Experimental: Empty vector and androgen receptor-expressing Jurkat cells were seeded into six well plates (Gibco) at 2×10^5 cells per well and treated with 100 nM testosterone (Sigma) or DHT (Millipore), alongside methanol vehicle control (Thermo Fisher). Every three days, cells were counted using the BioRad TC20 automated cell counter, passaged, and re-stimulated with the same androgen concentrations over a time course of 3, 6, and 9 days.
# [3] = test system: CD8+ T cells (Tcf7, Ar transcripts); test: qPCR of naïve CD8+ T cells stimulated with testosterone, type I IFN or both; format: cell-based, mouse
# Experimental: Mouse spleens and tumors were mechanically disrupted, with the latter additionally subjected to digestion with 1 mg/mL Collagenase D (Roche) for 30 min at 37° C. while shaken at 125 rpm. Excess volume of ice-cold PBS with 2% bovine serum albumin was used to inactivate the enzymatic activity. Red Blood Cell Lysis Buffer (BioLegend) was utilized on tissues before they were passed through 70 µm filters to prepare single cell suspensions. For cytokine production experiments, cells were re-stimulated by 50 ng/mL PMA (Sigma), 1 μg/mL Ionomycin (Sigma) and 1× Brefeldin A (BioLegend) in a 48-well plate for 2 hours at 37° C. For in vitro cultures, purified CD8^+ T cells were left untreated or stimulated with 50 ng/mL testosterone (Sigma) and/or 50 U/mL mouse IFN alpha A (PBL Assay Science). Cells were stained at 4° C. with eFluor506 fixable viability dye for 10 minutes (Invitrogen), followed by extracellular surface markers and FcR block concurrently for 30 minutes. All intracellular staining was performed using the Foxp3 transcription factor staining kit (Invitrogen) according to the manufacturer's instructions. […]
# RNA was extracted from FACS/MACS-isolated CD8^+ T cells and reverse-transcribed using RNeasy Micro Kit (Qiagen) and SuperScript™ IV VILO™ Master Mix with ezDNase™ Enzyme (ThermoFisher Scientific), respectively. Quantitative PCR was performed with the following primers: […]
# [4] = test system: MB49 mouse urothelial carcinoma cells; test: MB49 tumor growth in WT mice under daily vehicle or enzalutamide; format: in vivo; conditions: male WT mice, MB49 subcutaneous; enzalutamide 25 mg/kg daily oral gavage from Day 5 vs vehicle (FIG. 5J)
# Experimental: MB49 (a gift from C. Voelkel-Johnson from the Medical University of South Carolina) and BKL171 mouse urothelial carcinoma cells were cultured in Dulbecco's modified Eagle's medium with 10% heat-inactivated fetal bovine serum and 1% penicillin/streptomycin. 5×10^5 tumor cells were resuspended in 100 μL ice cold PBS for subcutaneous injection into the right flank of a mouse. For antibody-mediated T cell depletion experiments, mice were injected intraperitoneally with 200 μg of anti-mouse CD4 (Clone GK1.5, BioXCell) and/or CD8 neutralizing antibodies (Clone 53-6.7, BioXCell), followed by 100 μg thereafter on the indicated days. For experiments involving enzalutamide, mice were treated daily with either vehicle control or enzalutamide (25 mg/kg) in 1% carboxymethylcellulose with 0.1% Tween 80 and 2.5% DMSO through oral gavage starting on Day 5 post MB49 subcutaneous injection. Tumor surface area (width×length mm^2) was measured using an electronic caliper starting on Day 4 post implantation.
SMILES,Tcf7 promoter activity (luciferase) [1],proliferation [2],"Ar expression (qPCR) ([3]; female CD8+ T cells, testosterone (FIG. 7D))","Tcf7 expression (qPCR) ([3]; male CD8+ T cells, acute testosterone exposure, 6 hours (FIG. 7D))",tumor growth [4]
C[C@]12CC[C@H]3[C@@H](CCC4=CC(=O)CC[C@@]43C)[C@@H]1CC[C@@H]2O [testosterone],stimulated,decreased proliferation,induction of Ar expression,significantly increased,
"C[C@]12CCC(=O)C[C@@H]1CC[C@@H]1[C@@H]2CC[C@]2(C)[C@@H](O)CC[C@@H]12 [DHT, dihydrotestosterone]",stimulated,decreased proliferation,,,
CNC(=O)c1ccc(N2C(=S)N(c3ccc(C#N)c(C(F)(F)F)c3)C(=O)C2(C)C)cc1F [enzalutamide],,,,,partial protection against tumor growth
